Experimental data reported in patent US10583140B2, “Ingenol analogs, pharmaceutical compositions and methods of use thereof” (GlaxoSmithKline Intellectual Property Development Limited, priority 2016, dated 2020).

System: HIV-infected Jurkat cell clones (C16, I15 and N6)
Test: Jurkat HIV Latency assay (HIV activation, luciferase)
Assay type: cell-based
Conditions: Homo sapiens, HIV activation by HIV expressed luciferase (Steady-Glo), cells incubated with compound 24 hours at 37° C.
Experimental: For the Jurkat HIV Latency assay, compounds are dissolved and titrated in DMSO and diluted 100-fold in assay medium (RPMI-1640 containing 10% fetal bovine serum) containing an equal mixture of three HIV-infected Jurkat cell clones (C16, I15 and N6) at a total concentration of 1-2×10e^5 cells/mL. To test stability, compounds are pre-incubated in an assay medium for 48 hours at 37° C. prior to adding cells (48 hr EC50). Compounds that induce HIV expression result in a dose-dependent production of the HIV expressed luciferase enzyme. After the incubation of cells with compound for 24 hours at 37° C., HIV activation and cytotoxicity are determined by measuring luminescence after the addition of Promega Steady-Glo® Luciferase Assay reagent or CellTiter-Glo® Luminescent Cell Viability Assay reagent, respectively.

Row | Structure (SMILES) | EC50 [µM]
1 | CC1=C[C@]23C(=O)[C@@H](C=C(CO)[C@@H](O)[C@]2(O)C1=O)[C@H]1[C@@H](C[C@H]3C)C1(C)C [Example 4, (1aR,2S,5R,5aS,8aS,9R,10aR)-5,5a-dihydroxy-4-(hydroxymethyl)-1,1,7,9-tetramethyl-1a,2,5,5a,10,10a-hexahydro-1H-2,8a-methanocyclopenta[a]cyclopropa[e][10]annulene-6,11 (9H)-dione] | 4.94
2 | CCCCNC(=O)OCC1=C[C@@H]2C(=O)[C@]3(C=C(C)[C@H](O)[C@@]3(O)[C@@H]1O)[C@H](C)C[C@@H]1[C@H]2C1(C)C [Example 7, ((1aR,2S,5R,5aR,6S,8aS,9R,10aR)-5,5a,6-trihydroxy-1,1,7,9-tetramethyl-11-oxo-1a,2,5,5a,6,9,10,10a-octahydro-1H-2,8a-methanocyclopenta[a]cyclopropa[e][10]annulen-4-yl)methyl butylcarbamate] | 1.05
3 | CC(=O)OCC1=C[C@@H]2C(=O)[C@]3(C=C(C)[C@H](OC(=O)N(C)c4ccc(Cl)cc4)[C@@]3(O)[C@@H]1O)[C@H](C)C[C@@H]1[C@H]2C1(C)C [Example 1, ((1aR,2S,5R,5aS,6S,8aS,9R,10aR)-6-(((4-chlorophenyl) (methyl)carbamoyl)oxy)-5,5a-dihydroxy-1,1,7,9-tetramethyl-11-oxo-1a,2,5,5a,6,9,10,10a-octahydro-1H-2,8a-methanocyclopenta[a]cyclopropa[e][10]annulen-4-yl)methyl acetate] | 0.007
4 | CC1=C[C@]23C(=O)[C@@H](C=C(COC(=O)c4ccccc4)[C@@H](O)[C@]2(O)[C@H]1OC(=O)N(C)c1ccc(Cl)cc1)[C@H]1[C@@H](C[C@H]3C)C1(C)C [Example 2, ((1aR,2S,5R,5aS,6S,8aS,9R,10aR)-6-(((4-chlorophenyl) (methyl)carbamoyl)oxy)-5,5a-dihydroxy-1,1,7,9-tetramethyl-11-oxo-1a,2,5,5a,6,9,10,10a-octahydro-1H-2,8a-methanocyclopenta [a]cyclopropa[e][10]annulen-4-yl)methyl benzoate] | 0.022
5 | CC1=C[C@]23C(=O)[C@@H](C=C(CN4C(=O)c5ccccc5C4=O)[C@@H](O)[C@]2(O)[C@H]1OC(=O)N(C)c1ccc(Cl)cc1)[C@H]1[C@@H](C[C@H]3C)C1(C)C [Example 3, (1aR,2S,5R,5aS,6S,8aS,9R,10aR)-4-((1,3-dioxoisoindolin-2-yl)methyl)-5,5a-dihydroxy-1,1,7,9-tetramethyl-11-oxo-1a,2,5,5a,6,9,10,10a-octahydro-1H-2,8a-methanocyclopenta[a]cyclopropa[e][10]annulen-6-yl (4-chlorophenyl) (methyl)carbamate] | 1.11
6 | CC1=C[C@]23C(=O)[C@@H](C=C(COc4ncc(C(F)(F)F)cn4)[C@@H](O)[C@]2(O)[C@H]1O)[C@H]1[C@@H](C[C@H]3C)C1(C)C [Example 12, (1aR,2S,5R,5aR,6S,8aS,9R,10aR)-5,5a,6-trihydroxy-1,1,7,9-tetramethyl-4-(((5-(trifluoromethyl)pyrimidin-2-yl)oxy)methyl)-1a,2,5,5a,6,9,10,10a-octahydro-1H-2,8a-methanocyclopenta[a]cyclopropa[e][10]annulen-11-one] | 5.17
7 | CC1=C[C@]23C(=O)[C@@H](C=C(COC(=O)N(C)c4ccc(Cl)cc4)[C@@H](O)[C@]2(O)[C@H]1O)[C@H]1[C@@H](C[C@H]3C)C1(C)C [Example 5, ((1aR,2S,5R,5aR,6S,8aS,9R,10aR)-5,5a,6-trihydroxy-1,1,7,9-tetramethyl-11-oxo-1a,2,5,5a,6,9,10,10a-octahydro-1H-2,8a-methanocyclopenta[a]cyclopropa[e][10]annulen-4-yl)methyl (4-chlorophenyl)(methyl)carbamate] | 0.616
8 | CC1=C[C@]23C(=O)[C@@H](C=C(COC(=O)N4CCc5ccccc54)[C@@H](O)[C@]2(O)[C@H]1O)[C@H]1[C@@H](C[C@H]3C)C1(C)C [Example 10, ((1aR,2S,5R,5aR,6S,8aS,9R,10aR)-5,5a,6-trihydroxy-1,1,7,9-tetramethyl-11-oxo-1a,2,5,5a,6,9,10,10a-octahydro-1H-2,8a-methanocyclopenta[a]cyclopropa[e][10]annulen-4-yl)methyl indoline-1-carboxylate] | 0.278
9 | CC1=C[C@]23C(=O)[C@@H](C=C(COC(=O)Nc4ccccc4)[C@@H](O)[C@]2(O)[C@H]1O)[C@H]1[C@@H](C[C@H]3C)C1(C)C [Example 6, ((1aR,2S,5R,5aR,6S,8aS,9R,10aR)-5,5a,6-trihydroxy-1,1,7,9-tetramethyl-11-oxo-1a,2,5,5a,6,9,10,10a-octahydro-1H-2,8a-methanocyclopenta[a]cyclopropa[e][10]annulen-4-yl)methyl phenylcarbamate] | 3.68
10 | CC1=C[C@]23C(=O)[C@@H](C=C(COC(=O)N(C)C4CCCCC4)[C@@H](O)[C@]2(O)[C@H]1O)[C@H]1[C@@H](C[C@H]3C)C1(C)C [Example 9, ((1aR,2S,5R,5aR,6S,8aS,9R,10aR)-5,5a,6-trihydroxy-1,1,7,9-tetramethyl-11-oxo-1a,2,5,5a,6,9,10,10a-octahydro-1H-2,8a-methanocyclopenta[a]cyclopropa[e][10]annulen-4-yl)methyl cyclohexyl(methyl)carbamate] | 50
11 | CC1=C[C@]23C(=O)[C@@H](C=C(COC(=O)N4CCc5ccccc54)[C@@H](O)[C@]2(O)[C@H]1OC(=O)N1CCc2ccccc21)[C@H]1[C@@H](C[C@H]3C)C1(C)C [Example 11, (1aR,2S,5R,5aS,6S,8aS,9R,10aR)-5,5a-dihydroxy-4-(((indoline-1-carbonyl)oxy)methyl)-1,1,7,9-tetramethyl-11-oxo-1a,2,5,5a,6,9,10,10a-octahydro-1H-2,8a-methanocyclopenta[a]cyclopropa[e][10]annulen-6-yl indoline-1-carboxylate] | 3.5
12 | CC1=C[C@]23C(=O)[C@@H](C=C(COC(=O)NCc4ccccc4)[C@@H](O)[C@]2(O)[C@H]1O)[C@H]1[C@@H](C[C@H]3C)C1(C)C [Example 8, ((1aR,2S,5R,5aR,6S,8aS,9R,10aR)-5,5a,6-trihydroxy-1,1,7,9-tetramethyl-11-oxo-1a,2,5,5a,6,9,10,10a-octahydro-1H-2,8a-methanocyclopenta[a]cyclopropa[e][10]annulen-4-yl)methyl benzylcarbamate] | 4.33
